Experimental data from patent US20150086530A1, “DOSING REGIMENS FOR THE TREATMENT OF POMPE DISEASE” (Amicus Therapeutics, Inc., priority 2012, published 2015).

Test: Thigh muscle MRI before and after ERT
Format: in vivo
Conditions: at one year of ERT

## rhGAA: human recombinant acid α-glucosidase; alglucosidase alfa (Myozyme/Lumizyme) enzyme replacement therapy given by intravenous infusion
  decrease in muscle mass in posterior thigh: 11%
  decrease in muscle mass in the anterior thigh: 9.8%
  increase in intramuscular fat accumulation: 8.9%
  subcutaneous fat: 6.6%
